Consider 2 compounds from US20230114123A1, “METHOD OF STIMULATING ASYMMETRIC DIVISION OF SATELLITE STEM CELLS” (Ottawa Hospital Research Institute, priority 2017, published 2023).

For one assay, the system named is satellite stem cells. In words: EDL myofiber culture, satellite stem cell divisions (Myf5-Cre/R26R-eYFP, wild type). In kind it is cell-based, mouse. As to conditions: for Average number of asymmetric divisons/fiber / Proportion of YFP- divisions that are asymmetric divisions: WT myofibers, 42 h of culture. How it is done: EGFR Signaling Regulates Asymmetric Satellite Stem Cell Divisions. To assess the role of EGFR in asymmetric division, the inventors cultured satellite cells in myofibers isolated from Extensor digitorum longus (EDL) muscles from Myf5-Cre/R26R-eYFP mice and performed both loss-of-function and gain-of-function experiments. Isolated myofibers were first cultured for 42 h with and without treatment with the Lapatinib, a specific inhibitor of EGFR signaling.
(§1) EDL fiber Culture and siRNA Transfection. Myofiber culture was performed as described in Dumont, N. A., et al. “Dystrophin expression in muscle stem cells regulates their polarity and asymmetric division.” Nat. Med. (2015) 21:1455-63, which is incorporated herein by reference. Briefly, EDL were carefully dissected and incubated in DMEM with 2% L-glutamine, 4.5% glucose, and 110 mg/mL sodium pyruvate (Gibco) containing 0.2% collagenase I (Sigma) for 45 min. Myofibers were isolated using gentle trituration with a glass pipet. Myofibers were cultured for 36, 42, or 72 h in DMEM containing 20% FBS (Wisent), 1% chick embryo extract (MP Biomedicals), and 2.5 ng/ml bFGF (Cedarlane). For pharmacological inhibition, Lapatinib ditosylate (1 mM in DMSO; Santa
(§2) Cruz Biotechnology), PTP1b inhibitor CAS 765317-72-4 (10 mM in DMSO; Santa Cruz Biotechnologies) was added to the culture medium for a final concentration of 1 μM or 10 μM, respectively; equal dilution of DMSO was used as vehicle control.
Transfection of satellite cells on myofibers was performed using lipofectamine RNAimax (Life Technologies) and validated Smartpool siRNAs for EGFR, Aurka, or scramble (SCR) (Dharmacon). Two transfections were performed at 4 h and 16 h after isolation of the myofibers as described in Le Grand, et al. (2009) Wnt7a activates the planar cell polarity pathway to drive the symmetric expansion of satellite stem cells. Cell Stem Cell 4, pp 535-547, which is incorporated herein by reference. Knockdown efficiencies of the siRNA were validated in myoblasts by western blot and qRT-PCR.

Assay [1] deals with regenerating mdx TA muscles. In words: Cardiotoxin-induced injury of TA muscle in mdx mice, intramuscular treatment. In kind it is in vivo, mouse. The text has this:
Previously, the inventors observed that dystrophin- or Dag1-deficient muscles generate reduced numbers of Pax7-expressing and Myog-expressing cells following CTX-injury.
PTP1b inhibitor was concurrently administered with cardiotoxin into mdx TA muscles and supplemented again 2 days after the injury (FIG. 13A). To assess the muscle stem cell function after injury and the regenerative capacity of the treated mdx muscles, the inventors examined the histology of the regenerating muscles 10 days post cardiotoxin injection. Whereas the control vehicle treated muscles still contained large areas of necrotic fibers (msIgG+), the muscles treated with PTP1b inhibitors were better regenerated as evidenced by the presence of 50% […] Myh3-expressing myofibers (FIG. 13B). […] These findings are consistent with PTP1b inhibition inducing an increase in EGFR signaling and accelerated de novo myofiber formation in regenerating mdx muscles (FIG. 14).
Electroporation and Cardiotoxin Injury. Intramuscular (i.m.) cardiotoxin injections (Latoxan, 50 μl of 10 μM solution in saline) were injected directly into the right TA muscle through the skin under general anesthesia. For pharmacological inhibition, Lapatinib ditosylate (1 mM in DMSO; Santa Cruz Biotechnology), the PTP1b inhibitor CAS 765317-72-4 (10 mM in DMSO; Santa Cruz Biotechnologies) was mixed into the cardiotoxin solution for a final concentration of 1 μM or 20 μM, respectively; equal dilution of DMSO was used as vehicle control. Supplemental injection of inhibitors (20 μL of 2.5 μM of Lapatibin or 50 μM of PTP1b inhibitor diluted in saline) was performed 2 days after cardiotoxin injection.
Muscle samples were embedded in OCT embedding compound and frozen in liquid nitrogen cooled isopentane and cryosectioned in 12-μm slices. Cross-sections were washed once with PBS and fixed in 2% PFA 10 min, permeabilized with 0.1% Triton X-100/0.15 M Glycine/PBS for 10 min and extensively washed with PBS. Samples were blocked using M.O.M. Blocking reagent (Vector) for 2 h followed by additional blocking in 5% NGS/2% BSA at 4° C. over night. Primary antibodies were applied in blocking at 4° C. over night. Samples were washed extensively in PBS and secondary antibodies were applied in PBS (Alexa Flour 546, 647) for 1 h at room temperature. Following PBS washes, cross-sections were counterstained with DAPI ([…]) for 10 min and mounted with Permaflour (Fisher).
Histological Analysis of Muscle Sections. For Fiber type analysis, non-fixed samples were washed with PBS and blocked in 10% normal goat serum (NGS) for 1 hr at room temperature. Primary antibodies were applied in 10% NGS for 2 h at room temperature. Sections were washed extensively with PBS and secondary antibodies were applied in PBS for 1 h at room temperature. Following PBS washes, sections were counterstained with DAPI for 10 min and mounted with Permaflour. Antibodies were as follows: mouse anti-MyH3 (clone F1.652, DSHB), mouse anti-MyH4 (clone BF-F3, DSHB).
For analysis of myofiber Feret's diameter, non-fixed samples were washed with PBS and stained with Wheat Germ Agglutinin Alexa 647 conjugate (Fisher) for 1 h at room temperature. Samples were washed once with PBS and counterstained with DAPI. Samples were washed with PBS and mounted with Permaflour. Images were taken immediately following staining. Minimum fiber Feret measurement was performed using the SMASH software in MATLAB 2015a as described in Smith, L. R., and Barton, E. R. (2014) SMASH—semi-automatic muscle analysis using segmentation of histology: a MATLAB application. Skelet. Muscle 4, 21, which is incorporated herein by reference. Samples with significant staining artifacts were excluded from automated analyses.

Assay [2] has as its system dystrophin-deficient satellite stem cells. In words: EDL myofiber culture, satellite stem cell divisions (mdx Myf5-Cre/R26R-eYFP). In kind it is cell-based, mouse. The note with it: for Average number of asymmetric divisons/fiber / Proportion of YFP- divisions that are asymmetric divisions: mdx myofibers, 42 h of culture. How it is done: as §1, §2
The test system of a further assay is mdx satellite cells. Nature of the assay: Myog-expressing / myogenic cells on mdx myofibers at 72 h. The note with it: 72 h of mdx myofiber culture, FIG. 4D. In kind it is cell-based, mouse.
[3] abbreviates: 42 h culture, recombinant EGF vs vehicle, FIG. 4A.

Procedure for mdx satellite cells: EDL fiber Culture and siRNA Transfection. […] Briefly, EDL were carefully dissected and incubated in DMEM with 2% L-glutamine, 4.5% glucose, and 110 mg/mL sodium pyruvate (Gibco) containing 0.2% collagenase I (Sigma) for 45 min. Myofibers were isolated using gentle trituration with a glass pipet. Myofibers were cultured for 36, 42, or 72 h in DMEM containing 20% FBS (Wisent), 1% chick embryo extract (MP Biomedicals), and 2.5 ng/ml bFGF (Cedarlane). For pharmacological inhibition, Lapatinib ditosylate (1 mM in DMSO; Santa

Take `CCc1oc2cc(S(=O)(=O)Nc3ccc(S(=O)(=O)Nc4nccs4)cc3)ccc2c1C(=O)c1cc(Br)c(O)c(Br)c1` [PTP1b inhibitor, 3-(3,5-dibromo-4-hydroxy-benzoyl)-2-ethyl-benzofuran-6-sulfonicacid-(4-(thiazol-2-ylsulfamyl)-phenyl)-amide, reference compound]: in the assay on satellite stem cells, the “Average number of asymmetric divisons/fiber” value came to 0.988 and the “Proportion of YFP- divisions that are asymmetric divisions” value (“Proportion” for short) came out at 66.70%. The “fewer Myh3-expressing myofibers vs vehicle” value in assay [1] (PTP1b inhibitor with cardiotoxin and again 2 days after, 10 days post injection, FIG. 13B) is listed as 50%. Moreover, the “increase in muscle mass compared to vehicle treated controls” value in assay [1] (PTP1b inhibitor, 10 days post cardiotoxin, FIG. 13C) was found to be 14%. The “numbers of satellite cells (Pax7+)” value in assay [1] (PTP1b inhibitor, 10 days post cardiotoxin, FIG. 13F) is reported as “increased numbers of satellite cells”. Besides, in assay [1] (PTP1b inhibitor, 10 days post cardiotoxin, FIGS. 13D and E), the “increase on average in Feret's diameters of myofibers compared to control muscles” value came to 2 fold. In assay [2], the “Average number of asymmetric divisons/fiber” value worked out at 0.463 and the “Proportion” value was 33.33%.
Regarding “EGF: human recombinant EGF protein (Life Technologies), direct activator of the EGFR pathway”, the “increase in the rate of asymmetric satellite stem cell division” value in the assay with satellite stem cells (42 h culture, recombinant EGF 100 ng/mL vs vehicle, FIG. 2A) was 2.5 fold. Besides, in the assay with satellite stem cells (setting [3]), the “increase in asymmetric division, WT satellite cells” value is 29%. Also, the “Average number of asymmetric divisons/fiber” value stood at 0.939 with satellite stem cells and 0.436 in assay [2]. The “Proportion” value is reported as 70.86% in the assay on satellite stem cells and 34.60% in assay [2]. In addition, the “increase in total numbers of myogenic cells” value in the assay with mdx satellite cells is reported as “about 14%”. Moreover, the “increase in Pax7-expressing cells” value in assay [1] (10 ng recombinant EGF IM at CTX injury and 2 d after, 10 days post injury, FIG. 5B) was 26%. In addition, the “increase in the numbers of Myog-expressing cells” value in assay [1] (10 ng recombinant EGF IM at CTX injury and 2 d after, 10 days post injury, FIG. 5C) amounted to 50%. The “Feret's diameter of regenerating myofibers” value in assay [1] (EGF-treated vs vehicle-injected controls, 10 days post injury) is “an increase in Feret's diameter”. The “increase in the rate of asymmetric division, mdx satellite cells” value in assay [2] (setting [3]) is recorded as 67%. Further, in assay [2] (42 h of myofiber culture, FIG. 4B), the “increase in the absolute number of asymmetric satellite stem cell divisions, mdx” value is on record as 2 fold.
